Source: patent US12351587B2, “Bicyclic compound as RIP-1 kinase inhibitor and application thereof” (MEDSHINE DISCOVERY INC., priority 2019, dated 2025)

Legend:
[1] = Pharmacokinetics in C57BL/6 mice; format: in vivo; conditions: C57BL/6, plasma, mouse
Method: Eight healthy adult C57BL/6 mice (6-9 weeks old, purchased from Shanghai Lingchang Biotechnology Co., Ltd.) were selected, and randomly divided into two groups, 4 mice in each group (n=2, cross blood sampling). One group was given 0.5 mg/kg of the assay compound by intravenous injection, and the other group was given 1 mg/kg of the assay compound by gavage. Plasma samples were collected respectively from animals in the intravenous group and gavage group at 0.083, 0.25, 0.5, 1.0, 2.0, 4.0, 6.0, 8.0, 24 hours after administration. The blood concentration was determined by LC-MS/MS method. Relevant pharmacokinetic parameters were calculated by WinNonlin™ Version 6.3 (Pharsight, Mountain View, CA) pharmacokinetic software using non-compartmental model and linear logarithmic trapezoidal method. AUC0-last represents the area under the plasma concentration-time curve from zero time point to the last detectable concentration time point; Cmax represents the peak concentration; Tmax represents the time to reach the peak; T1/2 represents the half-life. CL represents the clearance rate; Tlast represents the last quantifiable time point; p.o. represents per os; i.v. represents intravenous injection; and F % represents oral bioavailability.

[2] = In vitro Caco-2 cell permeability assay; format: in vitro ADME; conditions: human, pH 7.4, Caco-2, 2 μM
Method: MEM (minimum essential medium) supplemented with 2 mM L-glutamine, 10% Fetal Bovine Serum (FBS), 100 U/mL penicillin-G and 100 μg/mL streptomycin was used for cell culture. The conditions for cell culture were 37±1° C., 5% CO2 and saturated humidity. When cells were grown to 80-90% confluency, trypsin (0.05%, w/v)/EDTA (0.02% w/v) digestion solution was added to digest the cells for seeding. The cells were seeded in BD Falcon's Transwell-96-well plate at a seeding density of 1×10^5 cells/cm^2. The cells were cultured in a carbon dioxide incubator for 22 days and then used for transport assay. […]
In this assay, liquid chromatography tandem mass spectrometry (LC/MS/MS) was used to semi-quantitatively analyze the peak area ratio of the assay compound and the control substances fenoterol, propranolol and digoxin to the internal standard in the starting solution, the receiving solution, and the supernatant of the dosing well. […]
Apparent permeability coefficient (Papp, cm/s), efflux rate and recovery rate were calculated using the following formulae.
The apparent permeability coefficient (Papp, cm/s) was calculated using the following formula: Papp=(dCr/dt)×Vr/(A×C0) […]
The efflux rate was calculated using the following formula: Efflux rate=Papp(BA)/Papp(AB) The recovery rate was calculated using the following formula: % recovery rate=100×[(Vr×Cr)+(Vd×Cd)]/(Vd×C0) […]

[3] = Plasma protein binding rate (PPB), human plasma; format: in vitro ADME; conditions: 2 μM, dialysis 4 hours 37° C.
Method: (§1) 796 μL of bank plasma from humans, SD rats and CD-1 mice (plasma purchased from BioreclamationIVT) were weighed, and the assay compound working solution or warfarin working solution was added so that the final concentration of the assay compound and warfarin in the plasma sample was 2 μM. The samples were mixed thoroughly. The final concentration of DMSO in the organic phase was 0.5%, 50 μL of plasma samples of the assay compound and warfarin were pipetted to a sample receiving plate, and the corresponding volume of the corresponding blank plasma or buffer was added immediately, so that the final volume in each sample well was 100 μL, wherein the volume ratio of plasma:dialysis buffer was 1:1. Stop solution was then added to these samples. These samples were used as T0 samples for determination of recovery and stability. The plasma samples of the assay compound and warfarin were added to the dosing end of each dialysis well, and blank dialysis buffer was added to the corresponding receiving end of the dialysis well. […] All samples were subjected to protein precipitation, and then analyzed by LC/MS/MS. Unbound rate (% Unbound), bound rate (% Bound), and recovery rate (% Recovery) of the compound were calculated using the following formulae: % Unbound=100*FC/TC, % Bond=100−% Unbound, and % Recovery=100*[…]/T0, […]

[4] = Plasma protein binding rate (PPB), mouse plasma; format: in vitro ADME, CD-1 mice; conditions: 2 μM, dialysis 4 hours 37° C.
Method: as §1

With CN1C(=S)[C@@H](NC(=O)c2ncn(Cc3ccccc3)n2)COc2cccnc21 [WX009] the AUC(0-t) ([1]; iv, i.v. 0.5 mg/kg) was 2.21 µM·h, the clearance ([1]; iv, i.v. 0.5 mg/kg) was 9.4 mL/min/kg and the half-life ([1]; iv, i.v. 0.5 mg/kg) was 84 min. It also gave a Vd ([1]; iv, i.v. 0.5 mg/kg, read-out: Vdss) of 1.1 L/kg, a bioavailability ([1]; oral, p.o. 1 mg/kg vs i.v. 0.5 mg/kg) of 89.1% and an AUC(0-t) ([1]; po, p.o. 1 mg/kg) of 3.85 µM·h. The Cmax ([1]; po, p.o. 1 mg/kg) was 1500 nM, the Tmax ([1]; po, p.o. 1 mg/kg) was 30 min and the Papp at 120 min, 2 μM ([2]; 120 minutes, pH 7.40, read-out: Apparent permeability coefficient) was 18.4 ×10⁻⁶ cm/s. It also gave an efflux ratio at 120 min, 2 μM ([2]; Papp(BA)/Papp(AB), read-out: Efflux rate) of 0.75, a PPB_Unbound [3] of 5.7% and a PPB_Unbound [4] of 7.0%.
